The text below walks through data of US11865176B2, “Compositions and methods of modulating anti-tumor immunity” (Dana-Farber Cancer Institute, Inc., priority 2016, dated 2024).

The test relates to PD-1-overexpressing Jurkat cells. Description: Small molecule screen: IL2 secretion (AlphaLISA) from stimulated PD-1-overexpressing Jurkat cells. Conditions: 3.3 μM compound; for Zscore_1 / Zscore_2: IL2 level, α-CD3/α-CD28/α-PD-1 beads; for Zscore_1: replicate 1; for Zscore_2: replicate 2; for Zscore_AVG: average of replicate Z scores. The format is cell-based, human. The method in brief:
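Cells (100,000/well) with compound at 3.3 μM final, stimulated by α-CD3/α-CD28/α-PD-1 Dynabeads at an 8:1 bead:cell ratio. IL2 in supernatants measured by AlphaLISA. Hits scored ≥3 SD from the mean of DMSO-treated, α-PD-1-bead-stimulated controls.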
Background: Bead proximity is the source of the signal in Alpha formats.

Regarding `N#Cc1c(NC(=O)c2cccc3ccccc23)sc2c1CCCC2` [JNK Inhibitor IX], the Zscore_1 is recorded as 0.5842, the Zscore_2 is −0.05285 and the Zscore_AVG amounted to 0.2657.

Consider `CCOc1nc(NC(=O)Cc2cc(OC)ccc2OC)cc(N)c1C#N` [JNK Inhibitor VIII], for which the Zscore_1 was −1.284, the Zscore_2 was −2.969 and the Zscore_AVG was −2.126.

`N#CC(c1ccnc(NCCc2cccnc2)n1)c1nc2ccccc2s1` (stereo not drawn) [JNK Inhibitor V] showed a Zscore_1 of −0.3788, a Zscore_2 of 3.626 and a Zscore_AVG of 1.623.

As to `Cn1nc2c3c(cccc31)C(=O)c1ccccc1-2` [JNK Inhibitor, Negative Control], the Zscore_1 worked out at 0.1027, the Zscore_2 was 1.046 and the Zscore_AVG is on record as 0.5746.

`COC(=O)[C@@]1(O)C[C@H]2O[C@]1(C)n1c3ccccc3c3c4c(c5c6ccccc6n2c5c31)C(=O)NC4` [K-252a, Nocardiopsis sp.] displayed a Zscore_1 of −4.42, a Zscore_2 of −6.58 and a Zscore_AVG of −5.5.

For the compound `CN([C@@H](Cc1ccc(OS(=O)(=O)c2cccc3cnccc23)cc1)C(=O)N1CCN(c2ccccc2)CC1)S(=O)(=O)c1cccc2cnccc12` [KN-62], the Zscore_1 is listed as −0.2488, the Zscore_2 is given as −0.8434 and the Zscore_AVG is −0.5461.

With `COc1ccc(S(=O)(=O)Nc2ccccc2CN(C)C/C=C/c2ccc(Cl)cc2)cc1` [KN-92], the Zscore_1 is on record as 0.5356, the Zscore_2 worked out at 0.3912 and the Zscore_AVG is given as 0.4634.

Regarding `COc1ccc(S(=O)(=O)N(CCO)c2ccccc2CN(C)C/C=C/c2ccc(Cl)cc2)cc1` [KN-93], the Zscore_1 is reported as −0.2896, the Zscore_2 was −2.889 and the Zscore_AVG is −1.589.

`CCCCCCOC(=O)[C@]1(O)C[C@@H]2O[C@@]1(C)n1c3ccccc3c3c4c(c5c6ccccc6n2c5c31)C(=O)NC4` [KT5720]: the Zscore_1 turned out to be 10.81, the Zscore_2 came out at 13.17 and the Zscore_AVG came out at 11.99.

For `O=C1Cc2c([nH]c3ccc(Br)cc23)-c2ccccc2N1` [Kenpaullone], the Zscore_1 was −0.7695, the Zscore_2 is on record as −1.747 and the Zscore_AVG is recorded as −1.258.

Take `Nc1ccc(-c2cccc3c(=O)cc(N4CCOCC4)oc23)cc1` [LY 294002,4-NH2]: the Zscore_1 stood at 3.33, the Zscore_2 was 7.54 and the Zscore_AVG was found to be 5.435.

In turn, `O=c1cc(N2CCOCC2)oc2c(-c3ccccc3)cccc12` [LY 294002] registered a Zscore_1 of −1.451, a Zscore_2 of 0.6923 and a Zscore_AVG of −0.3791.

`O=c1cc(N2CCNCC2)oc2c(-c3ccccc3)cccc12` [LY 303511] had a Zscore_1 of 1.21, a Zscore_2 of −0.8685 and a Zscore_AVG of 0.1705.

In the case of `Nc1ncnc2c1c(-c1ccc(Oc3ccccc3)cc1)cn2C1CCCC1` [Lck Inhibitor], the Zscore_1 is −8.467, the Zscore_2 was −8.924 and the Zscore_AVG was −8.695.

`N#C/C(=C(/N)Sc1ccc(N)cc1)c1ccccc1C(F)(F)F` [MEK 1/2 Inhibitor] came in with a Zscore_1 of −4.769, a Zscore_2 of −6.395 and a Zscore_AVG of −5.582.

The compound `O=C1C(Cl)=C(N2C(=O)CCC2=O)C(=O)c2ccccc21` [MEK Inhibitor II] displayed a Zscore_1 of −2.22, a Zscore_2 of −1.364 and a Zscore_AVG of −1.792.

Take `N#C/C(=C(/N)Sc1ccccc1N)c1cccc(C(O)c2ccncc2)c1` (stereo not drawn) [MEK Inhibitor I]: the Zscore_1 is −4.599, the Zscore_2 was −4.873 and the Zscore_AVG is −4.736.

In turn, `O=C(CCCc1ccc(-c2ccccc2F)cc1)Nc1ccc(O)cc1` [MK2a Inhibitor] gave a Zscore_1 of −1.455, a Zscore_2 of −2.305 and a Zscore_AVG of −1.88.

In turn, `O=C1NCCc2[nH]c(-c3ccnc(-c4cnc5ccccc5c4)c3)cc21` [MK-2 Inhibitor III] showed a Zscore_1 of −4.419, a Zscore_2 of −7.061 and a Zscore_AVG of −5.74.

Compound `Cl.O=S(=O)(c1cccc2c(I)cccc12)N1CCCNCC1` [ML-7, Hydrochloride] gave a Zscore_1 of 2.906, a Zscore_2 of 0.08811 and a Zscore_AVG of 1.497.

Take `Nc1ncnc2n[nH]c(Nc3ccc(F)cc3)c12` [MNK1 Inhibitor]: the Zscore_1 is on record as −2.022, the Zscore_2 is given as −0.3911 and the Zscore_AVG is −1.206.

As to `CN1C(=O)C(Cc2c[nH]c3ccccc23)NC1=S` (stereo not drawn) [Necrostatin-1], the Zscore_1 is −1.566, the Zscore_2 is reported as 1.447 and the Zscore_AVG is −0.05934.

On to `CC[C@H](CO)Nc1nc(NCc2ccccc2O)c2ncn(C(C)C)c2n1` [Olomoucine II], for which the Zscore_1 stood at 0.3445, the Zscore_2 came to 2.103 and the Zscore_AVG worked out at 1.224.

`COc1cccc(-c2cc(=O)c3ccccc3o2)c1N` [PD98059]: the Zscore_1 was −1.781, the Zscore_2 was −1.614 and the Zscore_AVG is on record as −1.698.

`CNc1cc2c(Nc3cccc(Br)c3)ncnc2cn1` [PD 158780] displayed a Zscore_1 of 0.3787, a Zscore_2 of 0.8816 and a Zscore_AVG of 0.6302.

As for `O=[N+]([O-])c1ccc(-c2nc(-c3ccc(F)cc3)c(-c3ccncc3)[nH]2)cc1` [PD 169316], the Zscore_1 is listed as −0.1697, the Zscore_2 is recorded as 0.08497 and the Zscore_AVG is reported as −0.04235.

As for `CCC(=O)Nc1ccc2ncnc(Nc3cccc(Br)c3)c2c1` [PD 174265], the Zscore_1 is given as −0.1183, the Zscore_2 is given as 0.5895 and the Zscore_AVG worked out at 0.2356.

`COc1cc2nccc(Oc3ccc(NC(=S)NC(=O)c4ccccc4C)cc3)c2cc1OC` [PDGF RTK Inhibitor] displayed a Zscore_1 of −3.239, a Zscore_2 of −6.099 and a Zscore_AVG of −4.669.

`COc1cc2ncnc(N3CCN(C(=O)Nc4ccc(Oc5ccccc5)cc4)CC3)c2cc1OC` [PDGF Receptor Tyrosine Kinase Inhibitor III] gave a Zscore_1 of 1.681, a Zscore_2 of 3.032 and a Zscore_AVG of 2.357.

Regarding `CCCC(=O)Oc1ccc2[nH]c(C(=O)c3cc4ccccc4[nH]3)cc2c1` [PDGF Receptor Tyrosine Kinase Inhibitor II], the Zscore_1 is recorded as −0.7009, the Zscore_2 was 0.7754 and the Zscore_AVG worked out at 0.03721.

Compound `COc1cc2c(cc1OC)-c1[nH]nc(Nc3cccc(F)c3)c1C2` [PDGF Receptor Tyrosine Kinase Inhibitor IV] gave a Zscore_1 of −0.8894, a Zscore_2 of −1.508 and a Zscore_AVG of −1.199.

Regarding `O=C1NC(=O)/C(=C/c2ccc3nccnc3c2)S1` [PI 3-Kg Inhibitor], the Zscore_1 is recorded as 0.8957, the Zscore_2 was determined as 2.23 and the Zscore_AVG was found to be 1.563.

`Oc1cccc(-c2nc(N3CCOCC3)c3sccc3n2)c1` [PI 3-Kα Inhibitor IV]: the Zscore_1 is 1.287, the Zscore_2 stood at 0.7223 and the Zscore_AVG was 1.005.

The compound `Cc1ccc([N+](=O)[O-])cc1S(=O)(=O)N(C)/N=C/c1cnc2ccc(Br)cn12.Cl` [PI 3-Kα Inhibitor VIII] came in with a Zscore_1 of −7.658, a Zscore_2 of −10.33 and a Zscore_AVG of −8.993.

In turn, `Cc1cc(C(C)Nc2ccccc2)c2nc(N3CCOCC3)cc(=O)n2c1` (stereo not drawn) [PI 3-Kβ Inhibitor VI, TGX-221] came in with a Zscore_1 of 2.504, a Zscore_2 of 2.528 and a Zscore_AVG of 2.516.

For `Oc1cccc(-c2nc(N3CCOCC3)c3oc4ncccc4c3n2)c1` [PI-103], the Zscore_1 is listed as −0.718, the Zscore_2 is 0.8433 and the Zscore_AVG is reported as 0.06265.

In turn, `CCCOc1ccc(/C=C2/SC(=O)NC2=O)cc1` [PIM1/2 Kinase Inhibitor VI] had a Zscore_1 of −0.7695, a Zscore_2 of −1.561 and a Zscore_AVG of −1.165.

Consider `O=C1NC(=O)C(c2cn(CCCn3ccnc3)c3ccccc23)=C1Nc1ccccc1` [PKCb Inhibitor], for which the Zscore_1 was −3.512, the Zscore_2 is on record as −5.04 and the Zscore_AVG was −4.276.

As for `O=C1NC(=O)c2cc(Nc3ccc(F)cc3)c(Nc3ccc(F)cc3)cc21` [PKCbII/EGFR Inhibitor], the Zscore_1 is −0.838, the Zscore_2 came out at 0.616 and the Zscore_AVG is on record as −0.111.

`O=C1Nc2ccc(Cl)cc2/C1=C/c1cc(Cl)c(O)c(Cl)c1` [PKR Inhibitor, Negative Control] came in with a Zscore_1 of −1.427, a Zscore_2 of −0.4334 and a Zscore_AVG of −0.9301.

For the compound `O=C1Nc2ccc3ncsc3c2/C1=C/c1cnc[nH]1` [PKR Inhibitor], the Zscore_1 was −7.658, the Zscore_2 was −8.086 and the Zscore_AVG is −7.872.

In turn, `CC(C)(C)n1nc(Cc2cccc3ccccc23)c2c(N)ncnc21` [PP1 Analog II, 1NM-PP1] displayed a Zscore_1 of −0.9751, a Zscore_2 of 0.08497 and a Zscore_AVG of −0.4451.

Regarding `Nc1ncnc2c1cnn2-c1ccccc1` [PP3], the Zscore_1 is recorded as 0.2416, the Zscore_2 came out at 0.9081 and the Zscore_AVG was 0.5749.
